Experimental findings from patent US10525055B2, “Opioid receptor antagonist prodrugs” (Nirsum Laboratories, Inc., priority 2017, dated 2020) are described below.

Data set [1] can be described thus: Polymorph screening of solid state drug substances. To be noted: for XRPD results (Dried): stirred 50 °C 72 hours, solids dried; for Visual observation 50° C. / Visual observation RT: target conc. 100 mg/ml.
A short description of data set [2]: Solubility determination in oil (cottonseed oil, sesame oil). How it is done:
A known amount of test substance (˜40 mg) was weighed into the vial, 100 μL of oil was added and heated to 60° C. and then system was slurried to reach equilibrium. […] Extra oil was added into the vial once compound precipitated out and then the system was re-equilibrated at 1000 rpm at room temperature (25° C.). Final concentration was determined by HPLC method as described below in Table 6a and 6b.

Data set [3] can be described thus: Plasma stability assay, rat plasma. Format: in vitro ADME. To be noted: 37° C., 10 μM. On the procedure: Plasma stability determination of the test compounds in rat, dog, cynomolgus monkey and human plasma is performed using HPLC-MS. For rat, incubations are carried out in 96-well polypropylene plates in 5 aliquots of 70 μL each (one for each time point). […] Five time points are analyzed (0, 15, 120, 480 and 1440 min). For dog, monkey and human, test compounds (2 μM, final solvent concentration 1%) were also incubated at 37° C. and analyzed at five time points (0, 10, 30, 60 and 120 min). All incubations are performed in duplicates. The samples are analyzed by HPLC-MS. The percentage of parent compound remaining after incubation in plasma is determined.

The mark [4] stands for this setting: heating temp. 60 °C, obs. temp. 40 °C.
Where [5] appears, read: heating temp. 60 °C, obs. temp. 25 °C.
Setting [6] is: heating temp. 40 °C, obs. temp. 40 °C.

Bounds are passed on as bounds.

On to `C=C1CC[C@@]2(O)C3Cc4ccc(OC(=O)CCCCCCCCCCCCCCCCCCC)c5c4[C@@]2(CCN3CC2CC2)[C@H]1O5` [Compound 16, (4aS,7aS,12bS)-3-(cyclopropylmethyl)-4a-hydroxy-7-methylene-2,3,4,4a,5,6,7,7a-octahydro-1H-4,12-methanobenzofuro[3,2-e]isoquinolin-9-yl icosanoate], for which the “XRPD results (Dried)” value in data set [1] (Acetone), in data set [1] (EtOAc), in data set [1] (Heptane), in data set [1] (Isopropanol) and in data set [1] (MTBE) was “Pattern A” each time. For the same compound, the “Visual observation 50° C.” value is “Clear” in data set [1] (Acetone); “Clear” in data set [1] (EtOAc); “Slurry” in data set [1] (Heptane); “Slurry” in data set [1] (Isopropanol); “Clear” in data set [1] (MTBE). For the same compound, the “Visual observation RT” value in data set [1] (Acetone) was “Slurry”; in data set [1] (EtOAc), “Slurry”; in data set [1] (Heptane), “Slurry”; in data set [1] (Isopropanol), “Slurry”; in data set [1] (MTBE), “Clear”. Also, in data set [1] (polymorph screen over Heptane, MTBE, Isopropanol, EtOAc, Acetone), the “Comment: stability of initial crystal form (pattern A)” value is given as “likely stable form. Same crystal form”. Besides, the “Approximate Solubility (mg/mL) in Excipient: Sesame oil” value (“Approximate Solubility … Sesame oil” for short) in data set [2] (setting [4]) lay in the range of 202 to 404 mg/mL.
For `C=C1CC[C@@]2(O)C3Cc4ccc(OC(=O)OCCCCCCCC)c5c4[C@@]2(CCN3CC2CC2)[C@H]1O5` [Compound 17, (4aS,7aS,12bS)-3-(cyclopropylmethyl)-4a-hydroxy-7-methylene-2,3,4,4a,5,6,7,7a-octahydro-1H-4,12-methanobenzofuro[3,2-e]isoquinolin-9-yl octyl carbonate], in data set [3], the “% remaining at time point in minutes, 0 min” value was determined as 100%; the “% remaining at time point in minutes, 15 min” value (shortened to “% remaining … 15 min”) stood at 0%; the “% remaining at time point in minutes, 120 min” value (“% remaining … 120 min” below) came out at 0%; the “% remaining at time point in minutes, 480 min” value (shortened to “% remaining … 480 min”) was 0%. Besides, the “% remaining at time point in minutes, 1440 min” value (“% remaining … 1440 min” for short) in data set [3] amounted to 0%. In data set [2] (setting [5]), the “Approximate Solubility (mg/mL) in Excipient: Cottonseed oil” value is on record as above 408 mg/mL.
Turning to `C=C1CC[C@@]2(O)C3Cc4ccc(OC(=O)CCCCCCC/C=C\C/C=C\C/C=C\CC)c5c4[C@@]2(CCN3CC2CC2)[C@H]1O5` [Compound 20, (4aS,7aS,12bS)-3-(cyclopropylmethyl)-4a-hydroxy-7-methylene-2,3,4,4a,5,6,7,7a-octahydro-1H-4,12-methanobenzofuro[3,2-e]isoquinolin-9-yl (9Z,12Z,15Z)-octadeca-9,12,15-trienoate], the “Approximate Solubility … Sesame oil” value in data set [2] (setting [6]) is reported as above 406 mg/mL.
As to `CCCCCCCC/C=C\CCCCCCCCCCCC(=O)Oc1ccc2c3c1O[C@H]1C(=O)CC[C@@]4(O)C(C2)N(CC2CC2)CC[C@]314` [Compound 22, (4aS,7aR,12bS)-3-(cyclopropylmethyl)-4a-hydroxy-7-oxo-2,3,4,4a,5,6,7,7a-octahydro-1H-4,12-methanobenzofuro[3,2-e]isoquinolin-9-yl (Z)-docos-13-enoate], the “Approximate Solubility (mg/mL) in Excipient: Ethanol” value in data set [2] (Ethanol, heating temp. 60 °C, obs. temp. 40 °C) was above 397.7 mg/mL. Moreover, in data set [2] (setting [4]), the “Approximate Solubility … Sesame oil” value is recorded as above 401.9 mg/mL.
Take `CCCCCCCCCCCCCCOC(=O)OCOc1ccc2c3c1O[C@H]1C(=O)CC[C@@]4(O)C(C2)N(CC2CC2)CC[C@]314` [Compound 27, (((4aS,7aR,12bS)-3-(cyclopropylmethyl)-4a-hydroxy-7-oxo-2,3,4,4a,5,6,7,7a-octahydro-1H-4,12-methanobenzofuro[3,2-e]isoquinolin-9-yl)oxy)methyl tetradecyl carbonate]: the “Approximate Solubility … Sesame oil” value in data set [2] (setting [5]) is above 399.2 mg/mL.
As to `C=C1CC[C@@]2(O)C3Cc4ccc(OC(=O)OCCCCCCCCCCCCCCCCCCCC)c5c4[C@@]2(CCN3CC2CC2)[C@H]1O5` [Compound 28, (4aS,7aS,12bS)-3-(cyclopropylmethyl)-4a-hydroxy-7-methylene-2,3,4,4a,5,6,7,7a-octahydro-1H-4,12-methanobenzofuro[3,2-e]isoquinolin-9-yl icosyl carbonate], the “Approximate Solubility … Sesame oil” value in data set [2] (setting [5]) was below 50.6 mg/mL.
Turning to `C=C1CC[C@@]2(O)C3Cc4ccc(OC(=O)OCCCCCCCCCCCCCCCCCC)c5c4[C@@]2(CCN3CC2CC2)[C@H]1O5` [Compound 33, (4aS,7aS,12bS)-3-(cyclopropylmethyl)-4a-hydroxy-7-methylene-2,3,4,4a,5,6,7,7a-octahydro-1H-4,12-methanobenzofuro[3,2-e]isoquinolin-9-yl octadecyl carbonate], in data set [2] (setting [5]), the “Approximate Solubility … Sesame oil” value is below 51 mg/mL.
As for `C=C1CC[C@@]2(O)C3Cc4ccc(OC(=O)CCCCCCC/C=C\CCCCCCCC)c5c4[C@@]2(CCN3CC2CC2)[C@H]1O5` [Compound 36, (4aS,7aS,12bS)-3-(cyclopropylmethyl)-4a-hydroxy-7-methylene-2,3,4,4a,5,6,7,7a-octahydro-1H-4,12-methanobenzofuro[3,2-e]isoquinolin-9-yl oleate], in data set [3], the “% remaining at time point in minutes, 0 min” value was 100%; the “% remaining … 15 min” value is on record as 74.4%; the “% remaining … 120 min” value came out at 66.3%; the “% remaining … 480 min” value is given as 39.8%. The “% remaining … 1440 min” value in data set [3] is given as 19.1%. For the same compound, in data set [2] (setting [5]), the “Approximate Solubility (mg/mL) in Excipient: Cottonseed oil” value is listed as above 407 mg/mL and the “Approximate Solubility … Sesame oil” value was above 408 mg/mL. In data set [2] (setting [6]), the “Approximate Solubility … Sesame oil” value is recorded as above 411.6 mg/mL.
Consider `C=C1CC[C@@]2(O)C3Cc4ccc(OC(=O)CCC5CCCC5)c5c4[C@@]2(CCN3CC2CC2)[C@H]1O5` [Compound 39, (4aS,7aS,12bS)-3-(cyclopropylmethyl)-4a-hydroxy-7-methylene-2,3,4,4a,5,6,7,7a-octahydro-1H-4,12-methanobenzofuro[3,2-e]isoquinolin-9-yl 3-cyclopentylpropanoate], for which the “Approximate Solubility … Sesame oil” value in data set [2] (setting [5]) fell in the range of 106 to 141 mg/mL.
For the compound `CC(C)(C)CC(=O)Oc1ccc2c3c1O[C@H]1C(=O)CC[C@@]4(O)C(C2)N(CC2CC2)CC[C@]314` [Compound 42, (4aS,7aR,12bS)-3-(cyclopropylmethyl)-4a-hydroxy-7-oxo-2,3,4,4a,5,6,7,7a-octahydro-1H-4,12-methanobenzofuro[3,2-e]isoquinolin-9-yl 3,3-dimethylbutanoate], the “Approximate Solubility … Sesame oil” value is listed as below 52 mg/mL in data set [2] (setting [6]) and below 25.8 mg/mL in data set [2] (setting [4]).
Take `CCCCCCCCCCCCCCCC(=O)OCOc1ccc2c3c1O[C@H]1C(=O)CC[C@@]4(O)C(C2)N(CC2CC2)CC[C@]314` [Compound 49, (((4aS,7aR,12bS)-3-(cyclopropylmethyl)-4a-hydroxy-7-oxo-2,3,4,4a,5,6,7,7a-octahydro-1H-4,12-methanobenzofuro[3,2-e]isoquinolin-9-yl)oxy)methyl hexadecanoate]: the “Approximate Solubility … Sesame oil” value in data set [2] (setting [5]) was below 51 mg/mL.
With `CCCCCCCCCCCCCCCCCCCC(=O)Oc1ccc2c3c1O[C@H]1C(=O)CC[C@@]4(O)C(C2)N(CC2CC2)CC[C@]314` [Compound 50, (4aS,7aR,12bS)-3-(cyclopropylmethyl)-4a-hydroxy-7-oxo-2,3,4,4a,5,6,7,7a-octahydro-1H-4,12-methanobenzofuro[3,2-e]isoquinolin-9-yl icosanoate], in data set [3], the “% remaining at time point in minutes, 0 min” value is 100%; the “% remaining … 15 min” value worked out at 114.5%; the “% remaining … 120 min” value was 102.7%; the “% remaining … 480 min” value is on record as 83.3%. The “% remaining … 1440 min” value in data set [3] came out at 73.9%. Moreover, in data set [2] (setting [5]), the “Approximate Solubility … Sesame oil” value is below 52 mg/mL.
`CCCCCCCCCCCCCCCCCCCCCC(=O)Oc1ccc2c3c1O[C@H]1C(=O)CC[C@@]4(O)C(C2)N(CC2CC2)CC[C@]314` [Compound 51, (4aS,7aR,12bS)-3-(cyclopropylmethyl)-4a-hydroxy-7-oxo-2,3,4,4a,5,6,7,7a-octahydro-1H-4,12-methanobenzofuro[3,2-e]isoquinolin-9-yl docosanoate]: in data set [3], the “% remaining at time point in minutes, 0 min” value was 100%; the “% remaining … 15 min” value is 107.4%; the “% remaining … 120 min” value is 105.3%; the “% remaining … 480 min” value is recorded as 88.2%. Also, the “% remaining … 1440 min” value in data set [3] came out at 92.7%.
With “Enalapril maleate salt [reference compound]”, in data set [3], the “% remaining at time point in minutes, 0 min” value turned out to be 100%; the “% remaining … 15 min” value stood at 44%; the “% remaining … 120 min” value is 2.9%; the “% remaining … 480 min” value turned out to be 8.2%. The “% remaining … 1440 min” value in data set [3] is 4.8%.
